A word on the Kd: it is the free concentration of one partner at which half of the binding sites on the other are occupied at equilibrium, for simple one-to-one binding.

The results in this text go back to patent publication US20230203098A1, “HUMAN TRANSFERRIN RECEPTOR BINDING PEPTIDE” (priority 2020, published 2023).

Where a SMILES comes first, the peptide text is derived from it. Bridges are numbered along the chain shown (N, C = ends). [ ]: non-standard residue; d: D form. ξ: configuration not given here. NMePhe(3-Cl) = CN[C@@H](Cc1cccc(Cl)c1)C(=O)O; NMeW = CN[C@@H](Cc1c[nH]c2ccccc12)C(=O)O; NMeY = CN[C@@H](Cc1ccc(O)cc1)C(=O)O; PEG4 = NCCOCCOCCOCCOCCC(=O)O; ξαMeK = CC(N)(CCCCN)C(=O)O

The target of this assay is transferrin receptor (hTfR) (Homo sapiens, UniProt P02786). In words: Intermolecular interaction evaluation test between transferrin receptor (hTfR) and peptide by surface plasmon resonance (SPR). Type of assay: binding. The note with it: surface plasmon resonance, hTfR; read-out: KD value for hTfR by SPR (class symbol). The gist of the method: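 hTfR captured on Ni-NTA chip then amine-coupled; peptides run single-cycle kinetics at 5–100 nM in 10 mM HEPES pH 8.0, 150 mM NaCl, 0.05% Tween 20, 0.1% BSA, 1.0% DMSO. KD from least-squares curve fitting of sensorgrams.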
Chain of transferrin receptor (hTfR) (P02786 whole entry): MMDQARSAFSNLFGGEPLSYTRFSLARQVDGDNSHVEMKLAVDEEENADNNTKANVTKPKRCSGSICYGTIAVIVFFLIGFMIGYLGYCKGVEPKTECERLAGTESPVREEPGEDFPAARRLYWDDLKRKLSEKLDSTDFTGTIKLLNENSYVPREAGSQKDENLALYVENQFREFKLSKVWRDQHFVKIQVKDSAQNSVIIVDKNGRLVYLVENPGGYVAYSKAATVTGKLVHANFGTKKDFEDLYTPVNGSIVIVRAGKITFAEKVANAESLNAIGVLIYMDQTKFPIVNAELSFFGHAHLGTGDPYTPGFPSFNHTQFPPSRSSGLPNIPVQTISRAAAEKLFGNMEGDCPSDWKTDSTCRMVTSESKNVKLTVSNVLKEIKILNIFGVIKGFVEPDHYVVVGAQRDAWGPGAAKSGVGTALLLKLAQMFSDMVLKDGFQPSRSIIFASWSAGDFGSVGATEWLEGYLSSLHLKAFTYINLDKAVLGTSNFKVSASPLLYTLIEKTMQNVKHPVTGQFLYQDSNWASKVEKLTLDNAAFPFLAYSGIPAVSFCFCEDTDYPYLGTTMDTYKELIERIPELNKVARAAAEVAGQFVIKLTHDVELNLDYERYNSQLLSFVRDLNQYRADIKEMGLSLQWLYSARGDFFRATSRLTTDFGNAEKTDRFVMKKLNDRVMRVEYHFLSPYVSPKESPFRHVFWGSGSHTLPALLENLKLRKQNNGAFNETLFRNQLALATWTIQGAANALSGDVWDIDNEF
(SPR reads the build-up and loss of mass on a sensor chip optically.)
In the case of `CC[C@H](C)[C@@H]1NC(=O)[C@H](Cc2ccc(OC)cc2)NC(=O)[C@H](Cc2ccc(O)cc2)NC(=O)[C@H](CC(N)=O)NC(=O)[C@H](Cc2c[nH]c3ccccc23)N(C)C(=O)[C@H](C(C)C)NC(=O)[C@H](Cc2cccc(Cl)c2)N(C)C(=O)[C@H](C(C)C)NC(=O)[C@H](C)NC(=O)CSC[C@@H](C(N)=O)NC(=O)[C@H](Cc2ccc(O)cc2)N(C)C(=O)[C@H](Cc2ccccc2)NC(=O)[C@@H](C)NC(=O)[C@H](CCCCN)N(C)C(=O)[C@H]([C@@H](C)CC)NC1=O` [compound 378], the Kd was 0.1 to 1 µM.
As to `CC[C@H](C)[C@@H]1NC(=O)[C@H](Cc2ccc(OC)cc2)NC(=O)[C@H](Cc2ccc(O)cc2)NC(=O)[C@H](CC(N)=O)NC(=O)[C@H](Cc2c[nH]c3ccccc23)N(C)C(=O)[C@H](C(C)C)NC(=O)[C@H](Cc2cccc(Cl)c2)N(C)C(=O)[C@H](C(C)C)NC(=O)[C@H](C)NC(=O)CSC[C@@H](C(N)=O)NC(=O)[C@H](Cc2ccc(O)cc2)N(C)C(=O)[C@H](Cc2ccccc2)NC(=O)[C@H](CCCNC(=N)N)NC(=O)C(C)(CCCCN)NC(=O)[C@H]([C@@H](C)CC)NC1=O` (stereo partly drawn) [compound 379], the Kd was 0.001 to 0.1 µM.
For `CC[C@H](C)[C@@H]1NC(=O)[C@H](Cc2ccc(OC)cc2)NC(=O)[C@H](Cc2ccc(O)cc2)NC(=O)[C@H](CC(N)=O)NC(=O)[C@H](Cc2c[nH]c3ccccc23)N(C)C(=O)[C@H](C(C)C)NC(=O)[C@H](Cc2cccc(Cl)c2)N(C)C(=O)[C@H](C(C)C)NC(=O)[C@H](C)NC(=O)CSC[C@@H](C(=O)NCCOCCOCCOCCOCCC(N)=O)NC(=O)[C@H](Cc2ccc(O)cc2)N(C)C(=O)[C@H](Cc2ccccc2)NC(=O)[C@@H](CCCNC(=N)N)NC(=O)C(C)(CCCCN)NC(=O)[C@H]([C@@H](C)CC)NC1=O` (stereo partly drawn) [compound 380] ({CH2CO}-AV[NMePhe(3-Cl)]V[NMeW]NYY(Me)II[ξαMeK][dR]F[NMeY]C[PEG4]-NH2; thioether N-15), the Kd is 0.001 to 0.1 µM.
As to `CC[C@H](C)[C@@H]1NC(=O)[C@H](Cc2ccc(OC)cc2)NC(=O)[C@H](Cc2ccc(O)cc2)NC(=O)[C@H](CC(N)=O)NC(=O)[C@H](Cc2c[nH]c3ccccc23)N(C)C(=O)[C@H](C(C)C)NC(=O)[C@H](Cc2cccc(Cl)c2)N(C)C(=O)[C@H](C(C)C)NC(=O)[C@H](C)NC(=O)CSC[C@@H](C(N)=O)NC(=O)[C@H](Cc2ccc(O)cc2)N(C)C(=O)[C@H](Cc2ccccc2)NC(=O)[C@H](CCCNC(=N)N)NC(=O)[C@H](CCCNC(=N)N)N(C)C(=O)[C@H]([C@@H](C)CC)NC1=O` [compound 381], the Kd lay within 0.001 to 0.1 µM.
The figure for `CC[C@H](C)[C@@H]1NC(=O)[C@H](Cc2ccc(OC)cc2)NC(=O)[C@H](Cc2ccc(O)cc2)NC(=O)[C@H](CC(N)=O)NC(=O)[C@H](Cc2c[nH]c3ccccc23)N(C)C(=O)[C@H](C(C)C)NC(=O)[C@H](Cc2cccc(Cl)c2)N(C)C(=O)[C@H](C(C)C)NC(=O)[C@H](C)NC(=O)CSC[C@@H](C(N)=O)NC(=O)[C@H](Cc2ccc(O)cc2)N(C)C(=O)[C@H](Cc2ccccc2)NC(=O)[C@@H](CCCNC(=N)N)NC(=O)[C@H](CCCNC(=N)N)N(C)C(=O)[C@H]([C@@H](C)CC)NC1=O` [compound 382] is 0.001 to 0.1 µM.
Consider `CC[C@H](C)[C@@H]1NC(=O)[C@H](Cc2ccc(OC)cc2)NC(=O)[C@H](Cc2ccc(O)cc2)NC(=O)[C@H](CC(N)=O)NC(=O)[C@H](Cc2c[nH]c3ccccc23)N(C)C(=O)[C@H](C(C)C)NC(=O)[C@H](Cc2cccc(Cl)c2)N(C)C(=O)[C@H](C(C)C)NC(=O)[C@H](C)NC(=O)CSC[C@@H](C(N)=O)NC(=O)[C@H](Cc2ccc(O)cc2)N(C)C(=O)[C@H](Cc2ccccc2)NC(=O)[C@@H](C)NC(=O)[C@H](CCCNC(=N)N)N(C)C(=O)[C@H]([C@@H](C)CC)NC1=O` [compound 383], for which the Kd was 0.1 to 1 µM.
For the compound `CC[C@H](C)[C@@H]1NC(=O)[C@H](Cc2ccc(OC)cc2)NC(=O)[C@H](Cc2ccc(O)cc2)NC(=O)[C@H](CC(N)=O)NC(=O)[C@H](Cc2c[nH]c3ccccc23)N(C)C(=O)[C@H](C(C)C)NC(=O)[C@H](Cc2cccc(Cl)c2)N(C)C(=O)[C@H](C(C)C)NC(=O)[C@H](C)NC(=O)CSC[C@@H](C(N)=O)NC(=O)[C@H](Cc2ccc(O)cc2)N(C)C(=O)[C@H](Cc2ccccc2)NC(=O)[C@H](CCC(=O)NCCOCCOCCOCCOCCOCCOCCOCCOC)NC(=O)[C@H](CCCNC(=N)N)NC(=O)[C@H]([C@@H](C)CC)NC1=O` [compound 384], the Kd is below 0.001 µM.
On to `CC[C@H](C)[C@@H]1NC(=O)[C@H](Cc2ccc(OC)cc2)NC(=O)[C@H](Cc2ccc(O)cc2)NC(=O)[C@H](CC(N)=O)NC(=O)[C@H](Cc2c[nH]c3ccccc23)N(C)C(=O)[C@H](C(C)C)NC(=O)[C@H](Cc2cccc(Cl)c2)N(C)C(=O)[C@H](C(C)C)NC(=O)[C@H](C)NC(=O)CSC[C@@H](C(N)=O)NC(=O)[C@H](Cc2ccc(O)cc2)N(C)C(=O)[C@H](Cc2ccccc2)NC(=O)[C@H](CCC(=O)N[C@H](CCC(=O)O)C(=O)O)NC(=O)[C@H](CCCNC(=N)N)NC(=O)[C@H]([C@@H](C)CC)NC1=O` [compound 385], for which the Kd was 0.001 to 0.1 µM.
The figure for `CC[C@H](C)[C@@H]1NC(=O)[C@H](Cc2ccc(OC)cc2)NC(=O)[C@H](Cc2ccc(O)cc2)NC(=O)[C@H](CC(N)=O)NC(=O)[C@H](Cc2c[nH]c3ccccc23)N(C)C(=O)[C@H](C(C)C)NC(=O)[C@H](Cc2cccc(Cl)c2)N(C)C(=O)[C@H](C(C)C)NC(=O)[C@H](C)NC(=O)CSC[C@@H](C(N)=O)NC(=O)[C@H](Cc2ccc(O)cc2)N(C)C(=O)[C@H](Cc2ccccc2)NC(=O)[C@H](CCCNC(=N)N)NC(=O)[C@H](CCCNC(=N)N)NC(=O)[C@H]([C@@H](C)CC)NC1=O` [compound 386] is 0.001 to 0.1 µM; for `CC[C@H](C)[C@@H]1NC(=O)[C@H](Cc2ccc(OC)cc2)NC(=O)[C@H](Cc2ccc(O)cc2)NC(=O)[C@H](CC(N)=O)NC(=O)[C@H](Cc2c[nH]c3ccccc23)N(C)C(=O)[C@H](C(C)C)NC(=O)[C@H](Cc2cccc(Cl)c2)N(C)C(=O)[C@H](C(C)C)NC(=O)[C@H](C)NC(=O)CSC[C@@H](C(=O)N[C@H](CCC(=O)O)C(=O)O)NC(=O)[C@H](Cc2ccc(O)cc2)N(C)C(=O)[C@H](Cc2ccccc2)NC(=O)[C@H](CCCNC(=N)N)NC(=O)[C@H](CCCNC(=N)N)NC(=O)[C@H]([C@@H](C)CC)NC1=O` [compound 387] it is 0.001 to 0.1 µM; for `CC[C@H](C)[C@@H]1NC(=O)[C@H](Cc2ccc(OC)cc2)NC(=O)[C@H](Cc2ccc(O)cc2)NC(=O)[C@H](CC(N)=O)NC(=O)[C@H](Cc2c[nH]c3ccccc23)N(C)C(=O)[C@H](C(C)C)NC(=O)[C@H](Cc2cccc(Cl)c2)N(C)C(=O)[C@H](C(C)C)NC(=O)[C@H](C)NC(=O)CSC[C@@H](C(N)=O)NC(=O)[C@H](Cc2ccc(O)cc2)N(C)C(=O)[C@H](CCC(=O)NCCOCCOCCOCCOCCOCCOCCOCCOC)NC(=O)[C@@H](CCCNC(=N)N)NC(=O)[C@H](CCCNC(=N)N)NC(=O)[C@H]([C@@H](C)CC)NC1=O` [compound 389] it is below 0.001 µM.
Turning to `CC[C@H](C)[C@@H]1NC(=O)[C@H](Cc2ccc(OC)cc2)NC(=O)[C@H](Cc2ccc(O)cc2)NC(=O)[C@H](CC(N)=O)NC(=O)[C@H](Cc2c[nH]c3ccccc23)N(C)C(=O)[C@H](C(C)C)NC(=O)[C@H](Cc2cccc(Cl)c2)N(C)C(=O)[C@H](C(C)C)NC(=O)[C@H](C)NC(=O)CSC[C@@H](C(N)=O)NC(=O)[C@H](Cc2ccc(O)cc2)N(C)C(=O)[C@H](CCC(=O)NCCCC[C@@H](NC)C(=O)O)NC(=O)[C@@H](CCCNC(=N)N)NC(=O)[C@H](CCCNC(=N)N)NC(=O)[C@H]([C@@H](C)CC)NC1=O` [compound 390], the Kd was 0.001 to 0.1 µM.
